Results from patent US5635401A, “Method to detect hormone treatment in animals” (Cornell Research Foundation, Inc., priority 1995, dated 1997).

B1: bST: recombinant bovine somatotropin, growth hormone approved for use in dairy cows (protein, UniProt P01246 27-217, looked up)
Somatotropin: AFPAMSLSGLFANAVLRAQHLHQLAADTFKEFERTYIPEGQRYSIQNTQVAFCFSETIPAPTGKNEAQQKSDLELLRISLLLIQSWLGPLQFLSRVFTNSLVFGTSDRVYEKLKDLEEGILALMRELEDGTPRAGQILKQTYDKFDTNMRSDDALLKNYGLLSCFRKDLHKTETYLRVMKCRRFGEASCAF
B2: MDGI/FABP: mammary derived growth inhibitor / fatty acid binding protein, a 15 kDa protein of the milk fat globule membrane (protein, UniProt P10790 2-133, looked up)
Fatty acid-binding protein, …: VDAFVGTWKLVDSKNFDDYMKSLGVGFATRQVGNMTKPTTIIEVNGDTVIIKTQSTFKNTEISFKLGVEFDETTADDRKVKSIVTLDGGKLVHVQKWNGQETSLVREMVDGKLILTLTHGTAVCTRTYEKQA

Tests used:
[1] = system: protein kinase activity of the resident proteins present in the MFGM; assay: Auto-phosphorylation of MFGM proteins with γ 32P-ATP, detected by SDS-PAGE and autoradiography; assay type: biochemical, bovine; settings: for effect on the phosphorylation pattern: valinomycin with or without KCl, ionophore A23187 + CaCl2
Procedure: MFGM and skim milk membranes (SMM) were incubated with γ ^32 P-ATP in the presence of protein phosphatase inhibitors (vanadate, 8-glycerophosphate, phosphotyrosine, phosphoserine, phosphothreonine, p-nitrophenyl phosphate) and 5 mM MgCl, and/or 3 mM MnCl, led to phosphorylation of proteins, as detected by SDS-PAGE and autoradiography. In the bovine MFGM, […] main radiolabelled protein bands were detected and ranged from 13-200 kDa (13, 15, 21, 24, 32, 35, 39, 45, 51, 66, 75, 100, 130, 200). In the human MFGM, 8 bands were indentified and ranged between 20-150 kDa five main bands corresponding to 51, 65, 66, 100, and 130, and three weaker bands corresponding to 21, 24 and 27 kDa. Phosphorylation of bovine skim milk membrane (SMM) proteins was observed only after the addition of 0.1% Triton X-100 to membranes. In this case, the three-four main radioactive bands were detected in a zone between 32 and 35 kDa, and one band in the 75 kDa range.
The presence of phosphatase inhibitors in the kinase media was necessary to see maximal levels of protein phosphorylation. The phosphorylation reaction would not take place when Mg^2+ and Mn^2+ were substituted for Ca^2+. Genistein, an inhibitor of protein tyrosine kinase activity caused approximately 50% inhibition of phosphorylation.
It is believed that the observed phosphorylation was a result of Mg^2+ or Mn^2+ --dependent protein kinase activity of the resident proteins present in the MFGM.

[2] = system: fatty acid binding protein (FABP/MDGI); assay: FABP phosphorylation in MFGM of milk from cows treated with bST (15 kDa band intensity on electrophoresis gel, FIG. 1); assay type: in vivo, cow; settings: for phosphorylated 15 kDa protein (FABP) relative to non-bST treated control cow: FIG. 1
Procedure: The test for determining whether an animal has been treated with bST is performed by: 1) isolating the milk fat globule membranes (MFGM); 2) phosphorylating the MFGM; 3) and detecting the levels of phosphorylation of FABP in MFGM.
Milk fat globule membranes (MFGM) are prepared from the cream of fresh bovine milk. Between 100-200 ml fresh bovine milk from cows administered bST are collected. The cream is obtained by centrifugation of milk at 3,000×g for 20 min. It is then suspended in two volumes of 10 mM phosphate buffer, pH 7.4, containing 0.9% NaCl (PBS), and homogenized in a Warring blender for 45 sec. The homogenate is centrifuged at 100,000×g for 90 min. The MFGM pellet is washed once by resuspension in an initial volume of PBS, followed by centrifugation at 100,000×gfor 90 min. No cells (somatic cells) are found in the MFGM, as determined by light microscopy. MFGM may be either used immediately or stored at -80' C. for future use.
FABP/MDGI is involved in the binding and transport of milk fatty acids.
FIG. 1 is a bar graph showing intensity of a band on an electrophoresis gel showing FABP phosphorylation at the 15 kDalton level. The non-bST treated cow was used as a control. A sample from a milk bulk tank containing milk from cows treated with bST has only about a quarter of the phosphorylated 15 kDa protein.

[3] = system: bovine mammary and human breast cancer cells; settings: including bovine mammary and human breast cancer cells; cited from earlier work

Row | Molecule | effect on the phosphorylation pattern [1] | further results
1 | N#CC(C#N)=NNc1cccc(Cl)c1 [CCCP, carbonyl-cyanide-m-chlorophenyl hydrazone] | did not significantly alter | 
2 | C=C1[C@@H]2CC[C@H]3[C@]4(C)C[C@H](O[C@@H]5O[C@H](CO)[C@@H](OS(=O)(=O)O)[C@H](OS(=O)(=O)O)[C@H]5OC(=O)CC(C)C)C[C@@H](C(=O)O)[C@H]4CC[C@]3(C2)[C@H]1O [atractyloside] | did not significantly alter | 
3 | C(=NC1CCCCC1)=NC1CCCCC1 [DCCD, dicyclohexylcarbodimide] | did not significantly alter | 
4 | CC1OC(OC2CC(O)C3(CO)C4C(O)CC5(C)C(C6=CC(=O)OC6)CCC5(O)C4CCC3(O)C2)C(O)C(O)C1O (stereo not drawn) [Oubain] | did not significantly alter | 
5 | CNc1ccc2oc(C[C@H]3O[C@@]4(CC[C@H]3C)O[C@H]([C@H](C)C(=O)c3ccc[nH]3)[C@H](C)C[C@H]4C)nc2c1C(=O)O [ionophore A23187] | did not significantly alter | 
6 | CC(C)[C@@H]1NC(=O)[C@H](C)OC(=O)[C@@H](C(C)C)NC(=O)[C@@H](C(C)C)OC(=O)[C@H](C(C)C)NC(=O)[C@H](C)OC(=O)[C@@H](C(C)C)NC(=O)[C@@H](C(C)C)OC(=O)[C@H](C(C)C)NC(=O)[C@H](C)OC(=O)[C@@H](C(C)C)NC(=O)[C@@H](C(C)C)OC1=O [valinomycin] | did not significantly alter | 
7 | O=c1c(-c2ccc(O)cc2)coc2cc(O)cc(O)c12 [Genistein] |  | inhibition of phosphorylation ([1]; kinase media with phosphatase inhibitors): approximately 50%
8 | B1 |  | levels of phosphorylated MDGI/FABP ([2]; MFGM isolated from cows treated with bST vs non treated cows): significantly reduced; FABP autophosphorylation activity ([2]; cows treated with bST vs non treated cows): weaker; phosphorylated 15 kDa protein (FABP) relative to non-bST treated control cow ([2]; individual cows treated with bST): significant decrease; phosphorylated 15 kDa protein (FABP) relative to non-bST treated control cow ([2]; milk bulk tank sample containing milk from cows treated with bST): about a quarter
9 | B2 |  | growth of various cell types [3]: inhibits the growth
